Reference: patent publication US10738051B2, “β-lactamase inhibitors” (priority 2016, dated 2020)

Experiments:
[1] = tested on: NDM-1 metalloenzyme-producing strains (8 strains), clinically isolated Klebsiella pneumoniae; assay: SIC assay against Chinese clinical isolates (broth microdilution MIC); type: cell-based; conditions: for MIC50 / MIC90: Klebsiella pneumoniae; for MIC50 / MIC90 / MIC range: NDM-1 metalloenzyme-producing K. pneumoniae clinical isolates (8 strains), enzyme inhibitor in combinations fixed at 4 μg/mL; for drug resistance rate / drug sensitive rate: NDM-1 metalloenzyme-producing strains (8 strains), CLSI criteria of the antibiotic, inhibitor fixed at 4 μg/mL
From the text: (§1) The broth microdilution method was used to determine the minimum inhibitory concentration (MIC) of antibacterial agents (with and without BLI lead compound) against clinical isolates of carbapenemase-producing strains.
(§2) 1. Drug susceptibility test: according to the method of antimicrobial susceptibility test described in the 2016 edition of the US Clinical and Laboratory Standards Institute (CLSI) document, the MIC of commonly used antibacterial drugs against clinically isolated bacteria was determined by a broth microdilution method.
(§3) 2. Strains: 8 KPC-2 carbapenemase-producing strains, 8 NDM-1 metalloenzyme-producing strains, and 6 OXA-181 carbapenemase-producing strains. All strains were clinically isolated Klebsiella pneumoniae.
(§4) 4. Quality control strains: quality control strains of the drug susceptibility test include Escherichia coli ATCC 25922 and ATCC 35218.

[2] = tested on: KPC-2 carbapenemase-producing strains (8 strains), clinically isolated Klebsiella pneumoniae; assay: as above; type: cell-based; conditions: for drug resistance rate / drug sensitive rate: KPC-2 carbapenemase-producing strains (8 strains), CLSI criteria of the antibiotic, inhibitor fixed at 4 μg/mL
From the text: as §1, §2, §3, §4

[3] = tested on: OXA-181 carbapenemase-producing strains (7 strains), clinically isolated Klebsiella pneumoniae; assay: as above; type: cell-based; conditions: for MIC50 / MIC90: Klebsiella pneumoniae; for drug resistance rate / drug sensitive rate: OXA-181 carbapenemase-producing strains (7 strains), CLSI criteria of the antibiotic, inhibitor fixed at 4 μg/mL
From the text: as §1, §2
2. […] All strains were clinically isolated Klebsiella pneumoniae.
as §4

[4] = tested on: K. pneumoniae ATCC BAA-2472 (NDM-1); assay: In vitro synergistic inhibitory concentration (SIC) assay; type: cell-based; conditions: Klebsiella pneumoniae, ATCCBAA2472, 37° C. 20 hours, read-out: minimum inhibitory concentration, used alone
Protocol: (§5) 2) 30 μL dimethyl sulfoxide was added to columns 2-12 of the 96-V well plate. 60 μL prepared ceftazidime was added to column 1. 30 μL ceftazidime was transferred from column 1 to column 2 and mixed with a pipette. The same operation was continued until column 11, and 30 μL of the mixture in column 11 was discarded. This was the compound mother plate.
(§6) Mix the liquid in the mother plate with a pipette.
(§7) 4) One day before the experiment, the bacterial glycerol stock which was stored in a −80° C. refrigerator was streaked on a trypticase soy agar plate (TSA), and the plate was incubated in a 37° C. incubator overnight. On the day of the experiment, the monoclonal bacterial was suspended in physiological saline and the turbidity of which was adjusted to 0.5 McFarland standard, corresponding to 1×10^8 CFU/ml. This suspension was diluted 100-fold to 1×10^6 CFU/mL with caton-adjusted Mueller-Hnton broth (CAMHB), which was used as an inoculation fluid.
(§8) 5) a 96-U plate was used as a test plate. Firstly, adding 98 μL CAMHB to each well of the test plate and transferring 2 μL solution in the mother plate to the test plate. 100 μL inoculation fluid was added to each well of the test plate.
(§9) 6) The test plate was incubated at 37° C. for 20 hours.
(§10) The above-mentioned method was also used to determine the antibacterial activity of the test compound or the antibiotic when used alone.

[5] = tested on: K. pneumoniae ATCC BAA-2524 (OXA-48); assay: as above; type: cell-based; conditions: Klebsiella pneumoniae, ATCCBAA2524, 37° C. 20 hours, read-out: minimum inhibitory concentration, used alone
Protocol: as §5, §6, §7, §8, §9, §10

[6] = tested on: E. coli ATCC BAA-2523 (OXA-48); assay: as above; type: cell-based; conditions: Escherichia coli, ATCCBAA2523, 37° C. 20 hours, read-out: minimum inhibitory concentration, used alone
Protocol: as §5, §6, §7, §8, §9, §10

[7] = tested on: K. pneumoniae ATCC BAA-2470 (NDM-1); assay: as above; type: cell-based; conditions: Klebsiella pneumoniae, ATCCBAA2470, 37° C. 20 hours, read-out: minimum inhibitory concentration, used alone
Protocol: as §5, §6, §7, §8, §9, §10

[8] = tested on: K. pneumoniae ATCC 51504 (TEM-10); assay: as above; type: cell-based; conditions: Klebsiella pneumoniae, ATCC51504, 37° C. 20 hours, read-out: minimum inhibitory concentration, used alone
Protocol: as §5, §6, §7, §8, §9, §10

[9] = tested on: K. pneumoniae ATCC BAA-1144 (AmpC); assay: as above; type: cell-based; conditions: Klebsiella pneumoniae, ATCCBAA1144, 37° C. 20 hours, read-out: minimum inhibitory concentration, used alone
Protocol: as §5, §6, §7, §8, §9, §10

[10] = tested on: K. pneumoniae ATCC BAA-1898 (KPC); assay: as above; type: cell-based; conditions: Klebsiella pneumoniae, ATCCBAA1898, 37° C. 20 hours, read-out: minimum inhibitory concentration, used alone
Protocol: as §5, §6, §7, §8, §9, §10

[11] = tested on: K. pneumoniae ATCC BAA-1705 (KPC); assay: as above; type: cell-based; conditions: Klebsiella pneumoniae, ATCCBAA1705, 37° C. 20 hours, read-out: minimum inhibitory concentration, used alone
Protocol: as §5, §6, §7, §8, §9, §10

[12] = tested on: K. pneumoniae ATCC BAA-205 (TEM-1/SHV-1/SHV-12); assay: as above; type: cell-based; conditions: Klebsiella pneumoniae, ATCCBAA205, 37° C. 20 hours, read-out: minimum inhibitory concentration, used alone
Protocol: as §5, §6, §7, §8, §9, §10

[13] = tested on: K. pneumoniae ATCC BAA-1899 (KPC); assay: as above; type: cell-based; conditions: Klebsiella pneumoniae, ATCCBAA1899, 37° C. 20 hours, read-out: minimum inhibitory concentration, used alone
Protocol: as §5, §6, §7, §8, §9, §10

[14] = tested on: K. pneumoniae ATCC 51503 (TEM-10/12); assay: as above; type: cell-based; conditions: Klebsiella pneumoniae, ATCC51503, 37° C. 20 hours, read-out: minimum inhibitory concentration, used alone
Protocol: as §5, §6, §7, §8, §9, §10

[15] = tested on: K. pneumoniae ATCC-700603 (SHV-18); assay: as above; type: cell-based; conditions: Klebsiella pneumoniae, ATCC700603, 37° C. 20 hours, read-out: minimum inhibitory concentration, used alone
Protocol: as §5, §6, §7, §8, §9, §10

[16] = tested on: E. cloacae ATCC BAA-1143 (AmpC); assay: as above; type: cell-based; conditions: Enterobacter cloacae, ATCCBAA1143, 37° C. 20 hours, read-out: minimum inhibitory concentration, used alone
Protocol: as §5, §6, §7, §8, §9, §10

[17] = molecular target: CTX-M-44 (Class C) β-lactamase (Escherichia coli, UniProt Q47066); assay: In vitro enzymatic assay (Nitrocefin); type: biochemical
Protocol: (§11) 2) Prepare buffer solution A (1×PBS, pH 7.4, 0.1 mg/mL BSA) for enzymatic assay;
(§12) 3) The compound mother liquor was 4-fold serial diluted for 11 times with DMSO in a 96-well tip-bottom plate, which was used as a working solution. A 96-well flat bottom plate was used as a test plate, the corresponding reaction buffer was previously added to each well, followed by addition of a corresponding volume of the working solution (100 μM-0.095 nM and 0 nM). Wherein, EDTA-Na2 was used as a control for the NDM-1 test at a concentration of 20 mM;
(§13) 4) adding the corresponding β-lactamase, and the test plate was incubated at 37° C. for 5 minutes;
(§14) 5) Adding 5 μL Nitrocefin (the final reaction volume was 100 μL), the absorbance OD490 of the reaction solution in the plate was measured by a microplate reader and the result was recorded, the absorbance was measured every minute over 30 minutes;
(§15) 6) The microplate reader could give a curve of OD490 over time. The slope of the curve (Abs2−Abs1)/(T2−T1) was calculated by taking two data points Abs1 and Abs2 within the linear range of the curve.
(§16) 7) The relative inhibition rate was calculated as follows: Slope (EC) was calculated under the condition of absence of an inhibitor, and Slop(S) was calculated under the condition of an inhibitor at a certain concentration.
(§17) The relative inhibition rate and the corresponding concentration of the inhibitor were used to calculate the IC50 value of the inhibitor on β-lactamase. In this experiment, the IC50 was calculated using the formula of GraphPad Prism 5.0, log(inhibitor) vs. normalized response-Variable slope.

[18] = molecular target: OXA-2 (Class D) β-lactamase (Escherichia coli, UniProt P0A1V9); assay: In vitro enzymatic assay (Nitrocefin); type: biochemical
Protocol: as §11, §12, §13, §14, §15, §16, §17

[19] = molecular target: OXA-9 (Class D) β-lactamase (Klebsiella pneumoniae, UniProt P0A3M3); assay: In vitro enzymatic assay (Nitrocefin); type: biochemical
Protocol: as §11, §12, §13, §14, §15, §16, §17

[20] = molecular target: AmpC-EC (Class C) β-lactamase (UniProt P05364); assay: In vitro enzymatic assay (Nitrocefin); type: biochemical; conditions: Nitrocefin 0.1 mM, 1 × PBS pH 7.4, 0.1 mg/mL BSA, read-out: IC50, inhibitory activity on β-lactamase
Protocol: as §11, §12, §13, §14, §15, §16, §17

[21] = Klebsiella pneumoniae, KPC-2 carbapenemase-producing K. pneumoniae clinical isolates (8 strains), enzyme inhibitor in combinations fixed at 4 μg/mL
[22] = OXA-181 carbapenemase-producing K. pneumoniae clinical isolates (7 strains), enzyme inhibitor in combinations fixed at 4 μg/mL

Compound | MIC50 [1] [µg/mL] | MIC90 [1] [µg/mL] | MIC range [1] [µg/mL] | drug resistance rate [1] | drug sensitive rate [1] | drug resistance rate [2] | drug sensitive rate [2] | MIC50 [2, 21] [µg/mL] | MIC50 [3, 22] [µg/mL] | MIC90 [3, 22] [µg/mL] | drug resistance rate [3] | drug sensitive rate [3] | MIC [4] [µg/mL] | MIC [5] [µg/mL] | MIC [6] [µg/mL] | MIC [7] [µg/mL] | MIC [8] [µg/mL] | MIC [9] [µg/mL] | MIC [10] [µg/mL] | MIC [11] [µg/mL] | further results
C[C@@H](O)[C@H]1C(=O)N2C(C(=O)O)=C(S[C@@H]3CN[C@H](C(=O)N(C)C)C3)[C@H](C)[C@H]12 [meropenem] | 4 | 32 | 2 to 32 | 75 | 0 | 100 | 0 | 64 | 0.5 | 2 | 0 | 85.7 | – | – | – | – | – | – | – | – | MIC range [3, 22]: 0.5 to 2 µg/mL
C[C@@H](O)[C@H]1C(=O)N2C(C(=O)O)=C(S[C@@H]3CN[C@H](C(=O)Nc4cccc(C(=O)O)c4)C3)[C@H](C)[C@H]12 [Ertapenem, ertapenem] | – | – | – | – | – | – | – | – | – | – | – | – | > 128 | 4 | 8 | > 128 | – | – | – | – | –
CC(C)(O/N=C(\C(=O)N[C@@H]1C(=O)N2C(C(=O)[O-])=C(C[n+]3ccccc3)CS[C@H]12)c1csc(N)n1)C(=O)O [Ceftazidime, ceftazidime] | > 128 | > 128 | >128 | 100 | 0 | 100 | 0 | > 128 | > 128 | > 128 | 100 | 0 | – | – | – | – | > 128 | > 128 | > 128 | > 128 | MIC [12]: 32 µg/mL; MIC [13]: > 128 µg/mL; MIC [14]: > 128 µg/mL; MIC [15]: 64 µg/mL; MIC [16]: > 128 µg/mL; MIC range ([2]; KPC-2 carbapenemase-producing K. pneumoniae clinical isolates (8 strains), enzyme inhibitor in combinations fixed at 4 μg/mL): 64 to 128 µg/mL; MIC90 [2, 21]: > 128 µg/mL
C[C@H]1[C@H](NC(=O)/C(=N\OC(C)(C)C(=O)O)c2csc(N)n2)C(=O)N1S(=O)(=O)O [aztreonam] | 64 | – | – | – | – | – | – | – | – | – | – | – | – | – | – | – | – | – | – | – | –
NC(=O)[C@@H]1CC[C@@H]2CN1C(=O)N2OS(=O)(=O)O [Avibactam, avibactam] | – | – | – | – | – | – | – | – | – | – | – | – | – | – | – | – | – | – | – | – | IC50 [17]: 67 nM; IC50 [18]: 1490 nM; IC50 [19]: 3130 nM; IC50 [20]: 107 nM
NCCONC(=O)[C@@H]1CC[C@@H]2CN1C(=O)N2OS(=O)(=O)O [OP-0595] | – | – | – | – | – | – | – | – | – | – | – | – | > 128 | > 128 | 16 | > 128 | > 128 | > 128 | > 128 | > 128 | MIC [12]: > 128 µg/mL; MIC [13]: > 128 µg/mL; MIC [14]: > 128 µg/mL; MIC [15]: > 128 µg/mL; MIC [16]: 4 µg/mL
